Read-outs that look alike come from different tables or passages of the source.

One experiment relates to Calu-6 lung tumor line. In words: cells. The format is cell-based, human. Particulars: MTS assay, 72 hours, read-out: IC50 growth inhibition in Calu-6 cells. For orientation: Formazan colour is commonly taken as a measure of viable cells.
Another experiment concerns MCF-7 breast tumor line. The class given is cell-based. Particulars: MTS assay, 72 hours; read-out: IC50 growth inhibition in MCF-7 cells.
A further experiment deals with T1, MAO-A (Homo sapiens, UniProt P21397).
T1 sequence (P21397 1-527): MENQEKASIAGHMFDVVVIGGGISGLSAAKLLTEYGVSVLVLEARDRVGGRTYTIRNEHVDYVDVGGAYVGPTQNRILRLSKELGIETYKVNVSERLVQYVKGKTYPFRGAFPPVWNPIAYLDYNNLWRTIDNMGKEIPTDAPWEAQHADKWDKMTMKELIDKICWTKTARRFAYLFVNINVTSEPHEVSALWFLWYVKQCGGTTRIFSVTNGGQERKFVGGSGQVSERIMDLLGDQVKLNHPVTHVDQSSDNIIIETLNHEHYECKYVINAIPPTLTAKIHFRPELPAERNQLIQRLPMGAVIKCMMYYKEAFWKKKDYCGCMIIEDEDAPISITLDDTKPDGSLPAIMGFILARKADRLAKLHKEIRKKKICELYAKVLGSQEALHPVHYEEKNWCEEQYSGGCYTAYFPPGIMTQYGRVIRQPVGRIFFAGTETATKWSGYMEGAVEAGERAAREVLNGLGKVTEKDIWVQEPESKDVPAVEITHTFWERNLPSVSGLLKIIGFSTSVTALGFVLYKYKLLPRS
Put plainly: Inhibition of monoamine oxidase A in vitro. The class given is biochemical. Particulars: read-out: IC50 for inhibition against MAO-A.

The next experiment addresses T2, MAO-B (Homo sapiens, UniProt P27338).
T2 sequence (P27338 1-520): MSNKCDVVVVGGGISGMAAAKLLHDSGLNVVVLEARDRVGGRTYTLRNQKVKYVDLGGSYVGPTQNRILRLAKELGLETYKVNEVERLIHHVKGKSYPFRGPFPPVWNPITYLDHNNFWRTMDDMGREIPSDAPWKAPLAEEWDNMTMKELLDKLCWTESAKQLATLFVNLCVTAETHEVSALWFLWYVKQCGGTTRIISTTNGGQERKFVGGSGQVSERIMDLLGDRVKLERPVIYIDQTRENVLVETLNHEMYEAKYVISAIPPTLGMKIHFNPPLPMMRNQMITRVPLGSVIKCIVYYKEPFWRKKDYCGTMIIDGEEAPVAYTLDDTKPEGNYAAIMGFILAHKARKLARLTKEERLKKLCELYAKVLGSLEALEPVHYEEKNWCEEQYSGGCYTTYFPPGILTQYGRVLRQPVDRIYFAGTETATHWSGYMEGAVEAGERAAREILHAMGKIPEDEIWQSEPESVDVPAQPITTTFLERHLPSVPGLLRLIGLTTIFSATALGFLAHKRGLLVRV
In words: Inhibition of monoamine oxidase B in vitro. The class given is biochemical. Particulars: read-out: IC50 for inhibition against MAO-B.

Text for MAO-A: (§1) Each data point is the average of three determinations±standard error.
Text for MAO-B: as §1

Usually IC50 stands for the concentration at which inhibition is half-maximal. On to `N=C(NCCCNCCCCCCCNCCCNC(=N)NC(=N)NCCC(c1ccccc1)c1ccccc1)NC(=N)NCCC(c1ccccc1)c1ccccc1` [compound 3, verlindamycin, reference compound], for which the IC50 in the experiment on Calu-6 lung tumor line (Homo sapiens, Calu-6) was 10.9 µM.
As to `CSCC[C@H](NC(=O)[C@@H](NC(=O)[C@H](CCCNC(=N)N)NC(=O)[C@H](C)N)[C@@H](C)O)C(=O)N[C@H]1CCCCNC(=O)CC[C@@H](C(=O)N[C@H](C(=O)NCC(=O)NCC(=O)N[C@@H](CCCCN)C(=O)N[C@@H](C)C(=O)N2CCC[C@H]2C(=O)N[C@@H](CCCNC(=N)N)C(=O)N[C@@H](CCCCN)C(=O)N[C@@H](CCC(N)=O)C(=O)N[C@@H](CC(C)C)C(=O)N[C@@H](C)C(N)=O)[C@@H](C)O)NC(=O)[C@H](CCCCN)NC(=O)[C@H](CCCNC(=N)N)NC(=O)[C@H](C)NC(=O)[C@H]([C@@H](C)O)NC1=O` [compound 11], the IC50 in the experiment on MCF-7 breast tumor line is 157 µM; in the experiment on Calu-6 lung tumor line, 125 µM; at MAO-A, more than 100 µM; on MAO-B it was more than 100 µM.
